Source: patent US9945841B2, “Cell cycle measuring method based on an electrochemical method” (INDUSTRY-UNIVERSITY COOPERATION FOUNDATION SOGANG UNIVERSITY, priority 2011, dated 2018)

Tests used:
Assay type in all cases: cell-based, rat
phosphohistone (p-HH^3) = experiment: Western blot of synchronized PC12 cells, G2/M-phase specific protein p-HH3; details: Western blot of G1/S- or G2/M-blocked PC12 cells (FIG. 3d)
Procedure: (§1) The cell-immobilized electrode was treated with 2 mM thymidine in culture medium (RPMI 1640) for 18 hrs, followed by an 8 hrs release (replaced by fresh medium), and then again with 2 mM thymidine for another 18 hrs to block cells in G1/S-phase (FIG. 1c). Similarly, another cell-immobilized electrode was treated initially with 2 mM thymidine as mentioned before for 18 hrs, followed by a 4 hrs release (replaced by fresh medium), and then with 100 ng/ml of nocodazole for another 10 h to block cells in G2/M-phase (FIG. 1c). Therefore, the working electrodes were prepared for electrochemical signal analysis of the cells in different phases of the cell cycle. Furthermore, for the time-dependent progression of G1/S-phase towards G2/M-phase, G1/S-blocked cells were released in fresh medium containing 10% FBS for several hours to perform electrochemical measurements. The synchronized PC12 cell pellet was solubilized for 15 min at 4° C. in lysis buffer. Lysates were centrifuged at 13,000 g for 30 min at 4° C. in order to remove insoluble material. The supernatant was then collected, and the protein concentration was determined using BCA protein assay reagent (Pierce Chemicals). […]

PC12 cells [1] = experiment: FACS cell-cycle distribution of on-chip synchronized cells; details: 2 mM thymidine 18 hrs
Procedure: (§2) A silicon-based gold electrode was first cleaned with freshly prepared piranha solution (1:3 mixture of 30% H2O2 and concentrated H2SO4) for 5 min and then rinsed thoroughly with double-distilled water. The electrode was then carefully polished by sonication in absolute alcohol and double-distilled water for 5 min. Finally, the electrode was electrochemically cleaned in 0.5 M H2SO4 until a stable cyclic voltammogram was obtained and then dried with purified nitrogen. After the pretreatment, a well ordered oligopeptide (RGD-MAP-C) was fabricated on the freshly cleaned gold electrode as reported in our previous work (15). For the electrochemical measurements, a 2 cm×1 cm×0.5 cm (width×length×height) cell chip chamber was fabricated by fixing a plastic chamber (Lab-Tek®, Thermo fisher scientific, USA) to the Au working electrode using PDMS (Polydimethylsiloxane). Afterward, rat pheochromocytoma (PC12) cells were seeded on the electrode at a density of 2×10^5 cells/chip and then immobilized via RGD-integrin interaction for 24 hrs in a standard cell culture environment. The cell-immobilized electrode was treated with 2 mM thymidine in culture medium (RPMI 1640) for 18 hrs, followed by an 8 hrs release (replaced by fresh medium), and then again with 2 mM thymidine for another 18 hrs to block cells in G1/S-phase (FIG. 1c). […]

PC12 cells [2] = experiment: Differential pulse voltammetry (DPV) of cells on Au/RGD-MAP-C cell chip; details: PC12 cells on Au electrode; double thymidine block; PBS 0.01 M pH 7.4; vs Ag/AgCl (FIG. 2b)
Procedure: as §2

cyclin B1 = experiment: Western blot of synchronized PC12 cells, cyclin B1; details: Western blot of G1/S- or G2/M-blocked PC12 cells (FIG. 3d)
Procedure: as §1

## COC(=O)Nc1nc2ccc(C(=O)c3cccs3)cc2[nH]1 [nocodazole]
Phosphohistone (p-HH^3)
  p-HH^3 expression: expressed
PC12 cells [1]; 4 hrs release, 100 ng/ml nocodazole 10 h, FACS (FIG. 3c)
  cells synchronized in G2/M-phase: ~72%

## Cc1cn([C@H]2C[C@H](O)[C@@H](CO)O2)c(=O)[nH]c1=O [thymidine, Thymidine]
PC12 cells [2]
  DPV peak potential of G1/S-phase blocked cells: +50 mV
Cyclin B1
  cyclin B1 expression: expressed dominantly
Phosphohistone (p-HH^3)
  p-HH^3 expression: absent
PC12 cells [1]; 8 hrs release, FACS (FIG. 3b)
  cells fixed in G1/S-phase: Approximately 75%
